Assay results: patent US20180100153A1, “Method and kit for use in inhiiting tumor progression, predicting or determining tumor progression state in VGF expressing cancers” (Truebio LLC, priority 2016, published 2018)

Columns and labels:
[1] = test system: HCC827GR cells; experiment: IC50 analysis via alamarBlue assay, HCC827GR versus HCC827; format: cell-based
[2] = test system: HCC827GR/tet-on control cells; experiment: Xenograft assay with doxycycline; format: in vivo, nude mice; details: daily oral Dox for 30 days
Experimental: FIG. 13 illustrates VGF as a therapeutic target. (FIG. 13A) Q-PCR (left) analysis for VGF expression and clonogenic assay (right) in HCC827GR/tet-on control cells. […] (FIG. 13B) Xenograft assay for assessing the effect of doxycycline treatment on tumor growth. HCC827GR/tet-on control cells were injected subcutaneously into nude mice. 32 days after cancer cell injection, mice were treated with or without daily oral doxycycline (Dox) for another 30 days. Tumor volume was monitored over time as indicated (left). Tumor weight was measured after harvest (upper right). The representative photographs illustrate tumor growth 30 days after Dox or normal saline treatment (lower right). ns means no significant (n=6 mice/group). (FIG. 13C) Q-PCR (left) analysis for VGF expression and clonogenic assay (right) in HCC827GR/tet-on shVGF cells in which shVGF was induced by doxycycline (Dox). […] HCC827GR/tet-on-shVGF cells were injected subcutaneously into nude mice. 32 days after cancer cell injection, mice were treated with or without daily oral doxycycline (Dox) for another 30 days. Tumor volume was monitored over time as indicated (left). Tumor weight was measured after harvest (upper right). The representative photographs illustrate tumor growth 30 days after Dox or normal saline treatment (lower right). Scale bar, 1 mm. Error bars indicate the SEM (n=6 mice/group; *P<0.05). […]

[3] = test system: lung adenocarcinoma harboring EGFR mutations (exon 19 deletions or the L858R mutation); details: References 5 to 10; cited from earlier work
[4] = test system: HCC827GR cells infected with shVGF; experiment: alamarBlue cell viability assay after VGF knockdown; format: cell-based; details: HCC827GR cells with VGF-silencing, gefitinib 3 days, FIG. 3F
Text: FIG. 3 illustrates expression of VGF in EGFR-TKI resistant lung cancer cells. […] Tubulin served as a loading control. (FIG. 3B) Q-PCR analysis (left) for measuring the expression of VGF in HCC827GR-2, an independently selected EGFR-TKI resistant HCC827 pool, versus and HCC827 cells. Tubulin served as a loading control. Gene expression analysis (right) for VGF expression in HCC827 and EGFR-TKI resistant clones (ER3 and T15-2) from the database of GSE38310. (FIG. 3C) Gene expression analysis for VGF expression in different subtypes of lung cancer cell lines from the database of […] (CCLE). SCLC: small cell lung cancer; ADC: adenocarcinoma; SCC: squamous cell carcinoma. […] (FIG. 3E) Q-PCR analysis (left) and western blotting (right) for measuring VGF expression in HCC827GR cells infected with lentiviral vectors encoding shVGF (shVGF) or scrambled control (SC). shVGF#1 and shVGF#2 target different regions in VGF mRNA.
To identify genes involved in EGFR-TKI resistance and EMT in lung adenocarcinoma, a gene expression profiling assay followed by Q-PCR analysis were performed in HCC827GR versus HCC827 cells (FIG. 3A, upper). […] . […] Consistently, the expression of VGF was elevated in the independently isolated TKI resistance HCC827 cells (FIGS. 3B and 10). […] The inventors further examined VGF levels in cell lines derived from different subtypes of lung cancer. […] .

[5] = test system: HCC827GR cells; experiment: Western blot of apoptosis markers (activated caspase 3, cleaved PARP); format: cell-based; details: gefitinib 1 μM, 24 hr
[6] = test system: HEK293T cells; experiment: Clonogenic analysis of VGF mutants under low serum stress; format: cell-based; details: transfected HEK293T cells, DMEM with 1% FBS, 10 days
Text: FIG. 18 illustrates effect of VGF mutants on low serum stress. (FIG. 18A) Schematic representation of VGF deletion mutations (FIG. 18B) A table summarizing clonogenic analysis of HEK293T cells transfected with expression vector encoding empty control (Ctrl), full-length VGF cDNA (VGF), or truncated VGF cDNA as described in the FIG. 18A under the growth of DMEM supplement with 1% FBS for 10 days.
The effect of VGF mutants on low serum stress was examined (FIG. 18). Clonogenic analysis of HEK293T cells transfected with expression vector encoding empty control, full-length VGF cDNA, or truncated VGF cDNA under the growth of DMEM supplement with 1% FBS for 10 days were summarized in FIG. 18B.

Molecule: C=CC(=O)Nc1cc(Nc2nccc(-c3cn(C)c4ccccc34)n2)c(OC)cc1N(C)CCN(C)C [AZD9291]
- IC50 analysis (EGFR-TKI resistance) [1]: resistance

Molecule: C[C@H]1c2cccc(O)c2C(=O)C2=C(O)[C@]3(O)C(=O)C(C(N)=O)=C(O)[C@@H](N(C)C)[C@@H]3[C@@H](O)[C@@H]21 [Dox, doxycycline]
- tumor growth [2]: no effect

Molecule: C#Cc1cccc(Nc2ncnc3cc(OCCOC)c(OCCOC)cc23)c1 [erlotinib]
- therapeutic response [3]: profound therapeutic responses

Molecule: COc1cc2ncnc(Nc3ccc(F)c(Cl)c3)c2cc1OCCCN1CCOCC1 [gefitinib]
- cell viability (sensitivity to gefitinib) [4]: sensitive
- expression of activated caspase 3 and PARP (apoptosis) [5]: resistant to gefitinib-induced apoptosis

B1: VGF 1-615: full length VGF, expressed from full-length VGF cDNA vector (protein, UniProt O15240 1-615, looked up)
chain: MKALRLSASALFCLLLINGLGAAPPGRPEAQPPPLSSEHKEPVAGDAVPGPKDGSAPEVRGARNSEPQDEGELFQGVDPRALAAVLLQALDRPASPPAPSGSQQGPEEEAAEALLTETVRSQTHSLPAPESPEPAAPPRPQTPENGPEASDPSEELEALASLLQELRDFSPSSAKRQQETAAAETETRTHTLTRVNLESPGPERVWRASWGEFQARVPERAPLPPPAPSQFQARMPDSGPLPETHKFGEGVSSPKTHLGEALAPLSKAYQGVAAPFPKARRPESALLGGSEAGERLLQQGLAQVEAGRRQAEATRQAAAQEERLADLASDLLLQYLLQGGARQRGLGGRGLQEAAEERESAREEEEAEQERRGGEERVGEEDEEAAEAEAEAEEAERARQNALLFAEEEDGEAGAEDKRSQEETPGHRRKEAEGTEEGGEEEDDEEMDPQTIDSLIELSTKLHLPADDVVSIIEEVEEKRKRKKNAPPEPVPPPRAAPAPTHVRSPQPPPPAPAPARDELPDWNEVLPPWDREEDEVYPPGPYHPFPNYIRPRTLQPPSALRRRHYHHALPPSRHYPGREAQARRAQEEAEAEERRLQEQEELENYIEHVLLRRP
modifications: full-length
notes: full length VGF, expressed from full-length VGF cDNA vector
- cell survival in clonogenic analysis [6]: survived
